Tested on: HPMC (human peritoneal mesothelial cells)
Test: HPMC viability under high level glucose, cell counting (WST-1)
Assay type: cell-based
Conditions: for effect on decrease in the viability of HPMC attributed to glucose (as measured by absorbance): preincubation 3 h with 0, 10, 100, 1,000 μM test substance, then 8 h in glucose 5.8 mM, 75 mM, 140 mM, WST-1
Method: Peritoneal mesothelial cells (HPMC) were preincubated for three hours in culture media (M199) containing ATP (0, 10, 100, and 1,000 μM). The cells were washed with an HPMC culture medium (saline buffer) and then incubated for eight hours in culture media (M199) containing glucose at three different levels (5.8 mM, 75 mM, and 140 mM). HPMC viability was obtained through cell counting (WST-1).
Instead of ATP, adenosine, which is a metabolite of ATP, was employed to study the effect of adenosine on decrease in HPMC viability caused by high level glucose.
Prior to the step of preincubation with ATP-containing culture media in the procedure of Example 1, HPMC were preincubated for 30 minutes with each of the following selective ATP receptor antagonists: (1) Suramin (P2X, P2Y receptor antagonist; 10 μM), (2) Reactive Blue 2 (P2Y receptor antagonist; 30 μM), and (3) PPADS (P2X receptor antagonist; 10 μM). Thereafter, the test was performed as described in Example 1.

Nc1ncnc2c1ncn2[C@@H]1O[C@H](COP(=O)(O)OP(=O)(O)OP(=O)(O)O)[C@@H](O)[C@H]1O [ATP, adenosine triphosphate]
ATP's effect on decrease in the viability of HPMC attributed to glucose after ATP receptor antagonist pretreatment (HPMC preincubated 30 min with Suramin 10 μM, Reactive Blue 2 30 μM or PPADS 10 μM before ATP preincubation, glucose 5.8, 75, 140 mM): no effect of alleviating reduction in HPMC viability
effect on decrease in the viability of HPMC attributed to glucose (as measured by absorbance): decrease in viability caused by high level glucose was significantly alleviated

Nc1ncnc2c1ncn2[C@@H]1O[C@H](CO)[C@@H](O)[C@H]1O [Adenosine, adenosine, reference compound]
effect on decrease in the viability of HPMC attributed to glucose (as measured by absorbance): no effect of alleviating decrease in HPMC viability
